Assay results published in patent US5968910A, “Compositions containing two or three inhibitors of different HIV reverse transcriptases” (priority 1994, dated 1999).
Values after ≈ are worked out from the molar mass of the structure shown. Where two headings read alike, the source gives them in different places.

Assays:
HIV-1(IIIB) = test: Knock-out concentrations: breakthrough of HIV-1(IIIB)-induced cytopathicity in CEM cell cultures; assay type: cell-based; conditions: for activity at 0.1 µg/mL / activity at 0.5 µg/mL / activity at 2.5 µg/mL: Human immunodeficiency virus 1, IIIB, CCRF-CEM, read-out: HIV-1-induced cytopathicity in cell culture; for activity at 0.1 µg/mL: 0.1 μg/ml; for activity at 0.5 µg/mL: 0.5 μg/ml; for activity at 2.5 µg/mL: 2.5 μg/ml
Method in brief: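 CEM cells in RPMI 1640 with 10% FBS infected with HIV-1(IIIB) at ~1000× CCID50, subcultured every 3–4 days into fresh uninfected cells with drug held constant for 10 subcultivations (35 days), then ≥5 drug-free passages. Breakthrough scored by syncytium formation. Combinations used the two lowest single-drug starting concentrations.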

HIV-1/Pyr (181-Cys) = test: Sensitivity of mutant HIV-1 strain in CEM cell cultures; assay type: cell-based; conditions: Human immunodeficiency virus 1, CCRF-CEM; CEM cells, Table 1; read-out: 50% Effective Concentration
Method in brief: (§1)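 Syncytium formation read out after 4 days at 37° C. Cultures: CEM cells, 250,000/ml, infected at 100 50% cell culture infective doses/ml and added to compound dilutions.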

HIV-1/V(0.5) 103-Asn = test: as above; assay type: cell-based; conditions: Human immunodeficiency virus 1, CCRF-CEM; Table 5; read-out: EC50
Method in brief: as §1

HIV-1/B 101Glu = test: as above; assay type: cell-based; conditions: Human immunodeficiency virus 1, CCRF-CEM; Table 5; read-out: EC50
Method in brief: as §1

[1] = test system: HIV-1/TIBO R82150 (100-Ile); test: as above; assay type: cell-based; conditions: Human immunodeficiency virus 1, CCRF-CEM; CEM cells, Table 1; read-out: 50% Effective Concentration
Method in brief: as §1

HIV-1/IV(0.1) 103-Thr = test: as above; assay type: cell-based; conditions: Human immunodeficiency virus 1, CCRF-CEM; Table 5; read-out: EC50
Method in brief: as §1

HIV-1/II(0.1) 100-Ile = test: as above; assay type: cell-based; conditions: Human immunodeficiency virus 1, CCRF-CEM; Table 5; read-out: EC50
Method in brief: as §1

[2] = test system: HIV-1/V(0.1) 101-Ile + 141-Glu; test: as above; assay type: cell-based; conditions: Human immunodeficiency virus 1, CCRF-CEM; Table 5; read-out: EC50
Method in brief: as §1

HIV-1/Nev (106-Ala) = test: as above; assay type: cell-based; conditions: Human immunodeficiency virus 1, CCRF-CEM; CEM cells, Table 1; read-out: 50% Effective Concentration
Method in brief: as §1

[3] = test system: HIV-1/TSAO-m^3 T (138-Lys); test: as above; assay type: cell-based; conditions: Human immunodeficiency virus 1, CCRF-CEM; CEM cells, Table 1; read-out: 50% Effective Concentration
Method in brief: as §1

HIV-1/I(0.1) 103-Asn = test: as above; assay type: cell-based; conditions: Human immunodeficiency virus 1, CCRF-CEM; Table 5; read-out: EC50
Method in brief: as §1

HIV-1/III(0.1) 103-Asn = test: as above; assay type: cell-based; conditions: Human immunodeficiency virus 1, CCRF-CEM; Table 5; read-out: EC50
Method in brief: as §1

[4] = test system: HIV-1/TIBO R82913 (103-Asn); test: as above; assay type: cell-based; conditions: Human immunodeficiency virus 1, CCRF-CEM; CEM cells, Table 1; read-out: 50% Effective Concentration
Method in brief: as §1

HIV-1(IIIB) (WT) = test: microbe, parasite or virus in culture; assay type: cell-based; conditions: Human immunodeficiency virus 1, IIIB, CCRF-CEM
Method in brief: as §1

HIV-1 RT (WT) = HIV-1 RT (WT) (Human immunodeficiency virus type 1 group M subtype B, UniProt P03366); test: biochemical
Method in brief: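 Inhibition read as reduced incorporation of [2,8-³H]dGTP (2.95 μM) into acid-precipitable product on a poly(C).oligo(dG) template/primer (0.1 mM). Recombinant RT, test compounds in 5-fold dilutions; 30 min, 37° C, pH 7.8 Tris buffer with 5 mM Mg2+, 150 mM KCl.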

[5] = 936 h, day 39 post infection, compound absent from day 35
[6] = 1008 h, day 42 post infection, compound absent from day 35
[7] = 1104 h, day 46 post infection, compound absent from day 35
[8] = 1176 h, day 49 post infection, compound absent from day 35
[9] = 1272 h, day 53 post infection, compound absent from day 35

**Q.** What does the source list for `Cc1occc1C(=S)Nc1ccc(Cl)c(C=NOC(C)(C)C)c1` [Compound I]?
**A.** prevention of virus breakthrough, fold more efficient than BHAP (HIV-1(IIIB)): at least 5 fold; prevention of virus breakthrough, fold more efficient than nevirapine (HIV-1(IIIB)): ≥ 25 fold; activity at 0.1 µg/mL (HIV-1(IIIB); 96 h, day 4 post infection): 0%; activity at 0.5 µg/mL (HIV-1(IIIB); 96 h, day 4 post infection): 0%; activity at 2.5 µg/mL (HIV-1(IIIB); 96 h, day 4 post infection): 0%; activity at 0.1 µg/mL (HIV-1(IIIB); 192 h, day 8 post infection): 0%; activity at 0.5 µg/mL (HIV-1(IIIB); 192 h, day 8 post infection): 0%; activity at 2.5 µg/mL (HIV-1(IIIB); 192 h, day 8 post infection): 0%; activity at 0.1 µg/mL (HIV-1(IIIB); 264 h, day 11 post infection): 6.2%; activity at 0.5 µg/mL (HIV-1(IIIB); 264 h, day 11 post infection): 0%; activity at 2.5 µg/mL (HIV-1(IIIB); 264 h, day 11 post infection): 0%; activity at 0.1 µg/mL (HIV-1(IIIB); 336 h, day 14 post infection): 25%; activity at 0.5 µg/mL (HIV-1(IIIB); 336 h, day 14 post infection): 0%; activity at 2.5 µg/mL (HIV-1(IIIB); 336 h, day 14 post infection): 0%; activity at 0.1 µg/mL (HIV-1(IIIB); 408 h, day 17 post infection): 100%; activity at 0.5 µg/mL (HIV-1(IIIB); 408 h, day 17 post infection): 0%; activity at 2.5 µg/mL (HIV-1(IIIB); 408 h, day 17 post infection): 0%; activity at 0.1 µg/mL (HIV-1(IIIB); 504 h, day 21 post infection): 100%; activity at 0.5 µg/mL (HIV-1(IIIB); 504 h, day 21 post infection): 0%; activity at 2.5 µg/mL (HIV-1(IIIB); 504 h, day 21 post infection): 0%; activity at 0.1 µg/mL (HIV-1(IIIB); 600 h, day 25 post infection): 100%; activity at 0.5 µg/mL (HIV-1(IIIB); 600 h, day 25 post infection): 0%; activity at 2.5 µg/mL (HIV-1(IIIB); 600 h, day 25 post infection): 0%; activity at 0.1 µg/mL (HIV-1(IIIB); 672 h, day 28 post infection): 100%; activity at 0.5 µg/mL (HIV-1(IIIB); 672 h, day 28 post infection): 0%; activity at 2.5 µg/mL (HIV-1(IIIB); 672 h, day 28 post infection): 0%; activity at 0.1 µg/mL (HIV-1(IIIB); 768 h, day 32 post infection): 100%; activity at 0.5 µg/mL (HIV-1(IIIB); 768 h, day 32 post infection): 0%; activity at 2.5 µg/mL (HIV-1(IIIB); 768 h, day 32 post infection): 0%; activity at 0.1 µg/mL (HIV-1(IIIB); 840 h, day 35 post infection): 100%; activity at 0.5 µg/mL (HIV-1(IIIB); 840 h, day 35 post infection): 0%; activity at 2.5 µg/mL (HIV-1(IIIB); 840 h, day 35 post infection): 0%; activity at 0.1 µg/mL (HIV-1(IIIB); [5]): 100%; activity at 0.5 µg/mL (HIV-1(IIIB); [5]): 0%; activity at 2.5 µg/mL (HIV-1(IIIB); [5]): 0%; activity at 0.1 µg/mL (HIV-1(IIIB); [6]): 100%; activity at 0.5 µg/mL (HIV-1(IIIB); [6]): 0%; activity at 2.5 µg/mL (HIV-1(IIIB); [6]): 0%; activity at 0.1 µg/mL (HIV-1(IIIB); [7]): 100%; activity at 0.5 µg/mL (HIV-1(IIIB); [7]): 0%; activity at 2.5 µg/mL (HIV-1(IIIB); [7]): 0%; activity at 0.1 µg/mL (HIV-1(IIIB); [8]): 100%; activity at 0.5 µg/mL (HIV-1(IIIB); [8]): 0%; activity at 2.5 µg/mL (HIV-1(IIIB); [8]): 0%; activity at 0.1 µg/mL (HIV-1(IIIB); [9]): 100%; activity at 0.5 µg/mL (HIV-1(IIIB); [9]): 0%; activity at 2.5 µg/mL (HIV-1(IIIB); [9]): 0%; concentration at which virus emerged (virus breakthrough) (HIV-1(IIIB); tested at 0.1, 0.5 and 2.5 μg/ml, 35 days): 0.1 µg/mL; EC50 (HIV-1/Pyr (181-Cys)): 0.075 µg/mL (≈ 0.214 µM); EC50 (HIV-1/V(0.5) 103-Asn): 0.73 µg/mL (≈ 2.08 µM); EC50 (HIV-1/B 101Glu): ≥ 1 µg/mL; EC50 [1]: 0.085 µg/mL (≈ 0.242 µM); EC50 (HIV-1/IV(0.1) 103-Thr): 0.6 µg/mL (≈ 1.71 µM); EC50 (HIV-1/II(0.1) 100-Ile): 1.25 µg/mL (≈ 3.56 µM); EC50 [2]: 0.12 µg/mL (≈ 0.342 µM); EC50 (HIV-1/Nev (106-Ala)): 0.13 µg/mL (≈ 0.371 µM); EC50 [3]: 0.075 µg/mL (≈ 0.214 µM); EC50 (HIV-1/I(0.1) 103-Asn): 0.23 µg/mL (≈ 0.656 µM); EC50 (HIV-1/III(0.1) 103-Asn): 0.3 µg/mL (≈ 0.855 µM); EC50 [4]: ≥ 1 µg/mL; EC50 (HIV-1(IIIB) (WT); CEM cells, Table 1, read-out: 50% Effective Concentration): 0.05 µg/mL (≈ 0.143 µM); EC50 (HIV-1(IIIB) (WT); HIV-1 (III8), Table 5, read-out: EC50): 0.01 µg/mL (≈ 0.0285 µM); IC50 (HIV-1(IIIB) (WT); range stated for Compounds I-V together, read-out: 50% inhibitory concentration, HIV-1(IIIB) replication in CEM cells): 0.004 to 0.05 µg/mL (≈ 0.0114 to 0.143 µM); IC50 (HIV-1 RT (WT); range stated for the compounds together, poly(C).oligo(dG), 2.95 μM [2,8-3H]dGTP, read-out: IC50 on recombinant HIV-1 RT): 51.3 to 219 nM; IC50 (HIV-1 RT (WT); substrate [2,8-3H]dGTP 2.95 μM, template poly(rC)oligo(dG), read-out: IC50, anti-HIV-1 RT (WT) activity (converted)): 202 nM
